Measurements taken from US9597407B2, “Targeted antimicrobial moieties” (C3 Jian, Inc., priority 2009, dated 2017).
“Also recorded” adds a separate entry of the source. Square brackets hold non-standard residues; d marks the D form. Ends that are not written are not given here. dOrn = NCCC[C@@H](N)C(=O)O

Experiments:
bacteria = test: Binding of targeting peptides to microorganisms (Table 3); settings: preferably 1x PBS
microorganisms = test: Morphology, biofilm and growth disruption by peptides (Table 5); assay type: cell-based; set-up: key: A: Peptide aggregates; B: Less hyphal formation; Clumps; Diffuse clumps and small polyps; F: Diffuse growth; H: Thin; I: Growth inhibition; Microcolony formation; Rippled; Small polyps; Thick; W: Halo formation on top, microlonies on bottom
From the text: In certain embodiments peptides that induce alterations in phenotype or other biological activities can also be used as antimicrobial effector moieties.

[1] = peptide binding in aqueous buffers that varied depending on peptide solubility
[2] = microorganism bound by the targeting peptide, binding in aqueous buffers chosen by peptide solubility
[3] = microorganism the targeting peptide binds, binding in aqueous buffers that varied with peptide solubility
[4] = peptide binding in aqueous buffers varied by peptide solubility

PF-424 (IAAFVTSRAFSDTVSPI; Peptide with targeting and/or antimicrobial activity)
Target(s) (microorganisms bound by the targeting peptide) (bacteria; [1]): S. epidermidis and C. albicans and MRSA | Organism, effect (morphology, biofilm and growth disruption) (microorganisms; S. pneumoniae): S. pneumoniae (H)

PF-123 (TTRPQVAEDRQLDDALKETFPASDPISP; Peptide with targeting and/or antimicrobial activity)
Target(s) (bacteria; [2]): M. luteus; also recorded: E. coli | Organism, effect (microorganisms; S. epidermidis): S. epidermidis (M)

PF-704 (chain 1 APAARAAL; chain 2 APAARAAL; Peptide with targeting and/or antimicrobial activity)
Target(s) (microorganism bound by the targeting peptide) (bacteria; [1]): Mycobacteria spp | Organism, effect (morphology, biofilm and growth disruption) (microorganisms; S. pneumoniae): S. pneumoniae (C)

PF-632 (chain 1 TTIQGVASLEKHGFRYTIIYPTRI; chain 2 TTIQGVASLEKHGFRYTIIYPTRI; Peptide with targeting and/or antimicrobial activity)
Target(s) (microorganism bound by the targeting peptide) (bacteria; [1]): S. epidermidis and P. aeruginosa and C. albicans and MRSA and S. pneumoniae and E. faecalis and C. jeikeium | Organism, effect (morphology, biofilm and growth disruption) (microorganisms; B. subtilis): B. subtilis (H) | Organism, effect (morphology, biofilm and growth disruption) (microorganisms; C. albicans): C. albicans (B) | Organism, effect (morphology, biofilm and growth disruption) (microorganisms; C. jeikeium): C. jeikeium (D) | Organism, effect (morphology, biofilm and growth disruption) (microorganisms; E. faecalis): E. faecalis (D) | Organism, effect (morphology, biofilm and growth disruption) (microorganisms; MRSA): MRSA (D) | Organism, effect (morphology, biofilm and growth disruption) (microorganisms; S. epidermidis): S. epidermidis (D) | Organism, effect (morphology, biofilm and growth disruption) (microorganisms; S. pneumoniae): S. pneumoniae (M)

PF-009 (chain 1 SKKYNHILNQENR; chain 2 SKKYNHILNQENR; Peptide with targeting and/or antimicrobial activity)
Target(s) (bacteria; [3]): M. luteus; also recorded: P. mirabilis; also recorded: C. albicans | Organism, effect (microorganisms; S. epidermidis): S. epidermidis (S)

SLQSQLGPCLHDQRH [PF-448]
Target(s) (microorganisms bound by the targeting peptide) (bacteria; [1]): S. epidermidis; also recorded: M. luteus; also recorded: P. mirabilis; also recorded: E. coli; also recorded: S. pneumoniae; also recorded: E. faecalis; also recorded: C. jeikeium; also recorded: C. jejuni | Organism, effect (morphology, biofilm and growth disruption) (microorganisms; S. pneumoniae): S. pneumoniae (I)

PF-653 (chain 1 QSVHPLPAETPVADVI; chain 2 QSVHPLPAETPVADVI; Peptide with targeting and/or antimicrobial activity)
Target(s) (microorganism bound by the targeting peptide) (bacteria; [1]): Mycobacteria spp | Organism, effect (morphology, biofilm and growth disruption) (microorganisms; S. pneumoniae): S. pneumoniae (H)

FELVDWLETNLGKILKSKSA-NH2 [PF-522]
Target(s) (microorganisms bound by the targeting peptide) (bacteria; [1]): S. epidermidis; also recorded: E. coli; also recorded: P. aeruginosa; also recorded: S. pneumoniae; also recorded: E. faecalis | Organism, effect (morphology, biofilm and growth disruption) (microorganisms; S. pneumoniae): S. pneumoniae (H)

PF-609 (TEIKLDNNEYLVLNLDDILGILK; Peptide with targeting and/or antimicrobial activity)
Target(s) (microorganism bound by the targeting peptide) (bacteria; [1]): P. mirabilis; also recorded: E. coli; also recorded: S. pneumoniae | Organism, effect (morphology, biofilm and growth disruption) (microorganisms; C. jejuni): C. jejuni (R) | Organism, effect (morphology, biofilm and growth disruption) (microorganisms; E. faecalis): E. faecalis (A) | Organism, effect (morphology, biofilm and growth disruption) (microorganisms; MRSA): MRSA (C) | Organism, effect (morphology, biofilm and growth disruption) (microorganisms; S. pneumoniae): S. pneumoniae (R)

PF-406 (YLEMNADYLSNMDIFDELWEKYLENNK; Peptide with targeting and/or antimicrobial activity)
Target(s) (microorganisms bound by the targeting peptide) (bacteria; [1]): E. coli; also recorded: C. jejuni | Organism, effect (microorganisms; MRSA): MRSA (M) | Organism, effect (microorganisms; S. epidermidis): S. epidermidis (C)

PF-637 (chain 1 SRIKQDARSVRKYDRIGIFFYSFKSA; chain 2 SRIKQDARSVRKYDRIGIFFYSFKSA; Peptide with targeting and/or antimicrobial activity)
Target(s) (microorganism bound by the targeting peptide) (bacteria; [1]): S. epidermidis and P. aeruginosa and C. albicans and MRSA and S. pneumoniae and E. faecalis and C. jeikeium | Organism, effect (morphology, biofilm and growth disruption) (microorganisms; C. jeikeium): C. jeikeium (D) | Organism, effect (morphology, biofilm and growth disruption) (microorganisms; E. faecalis): E. faecalis (D) | Organism, effect (morphology, biofilm and growth disruption) (microorganisms; MRSA): MRSA (M) | Organism, effect (morphology, biofilm and growth disruption) (microorganisms; S. epidermidis): S. epidermidis (M) | Organism, effect (morphology, biofilm and growth disruption) (microorganisms; S. pneumoniae): S. pneumoniae (M)

PF-646 (chain 1 APASPGRRPG; chain 2 APASPGRRPG; Peptide with targeting and/or antimicrobial activity)
Target(s) (microorganism bound by the targeting peptide) (bacteria; [1]): Mycobacteria spp | Organism, effect (morphology, biofilm and growth disruption) (microorganisms; C. albicans): C. albicans (B) | Organism, effect (morphology, biofilm and growth disruption) (microorganisms; S. pneumoniae): S. pneumoniae (H)

PF-695 (chain 1 ALSVMLGNIPLVVPNANQL; chain 2 ALSVMLGNIPLVVPNANQL; Peptide with targeting and/or antimicrobial activity)
Target(s) (microorganism bound by the targeting peptide) (bacteria; [1]): Mycobacteria spp | Organism, effect (morphology, biofilm and growth disruption) (microorganisms; E. faecalis): E. faecalis (R) | Organism, effect (morphology, biofilm and growth disruption) (microorganisms; MRSA): MRSA (R) | Organism, effect (morphology, biofilm and growth disruption) (microorganisms; S. pneumoniae): S. pneumoniae (C)

PF-408 (YCVPLGNMGNMNNKIW; Peptide with targeting and/or antimicrobial activity)
Target(s) (microorganisms bound by the targeting peptide) (bacteria; [1]): S. epidermidis and E. coli and P. aeruginosa and MRSA and E. faecalis and C. jeikeium and C. jejuni | Organism, effect (microorganisms; MRSA): MRSA (M) | Organism, effect (microorganisms; S. epidermidis): S. epidermidis (M)

PDAPRTCYHKPILAALSRIVVTDR [PF-524]
Target(s) (microorganisms bound by the targeting peptide) (bacteria; [1]): S. epidermidis and E. coli and P. aeruginosa and C. albicans and MRSA and S. pneumoniae and E. faecalis and C. jeikeium | Organism, effect (morphology, biofilm and growth disruption) (microorganisms; E. coli): E. coli (M) | Organism, effect (morphology, biofilm and growth disruption) (microorganisms; E. faecalis): E. faecalis (C) | Organism, effect (morphology, biofilm and growth disruption) (microorganisms; MRSA): MRSA (C) | Organism, effect (morphology, biofilm and growth disruption) (microorganisms; S. pneumoniae): S. pneumoniae (M)

PF-423 (AGKKERLLSFREQFLNKNKKK; Peptide with targeting and/or antimicrobial activity)
Target(s) (microorganisms bound by the targeting peptide) (bacteria; [1]): S. epidermidis; also recorded: M. luteus; also recorded: E. coli; also recorded: S. pneumoniae; also recorded: E. faecalis; also recorded: C. jeikeium | Organism, effect (morphology, biofilm and growth disruption) (microorganisms; S. pneumoniae): S. pneumoniae (H)

PF-C008 (AQPRRTWLVNFGEVPSPGLTNDGMPDH; Peptide with targeting and/or antimicrobial activity)
Target(s) (microorganism bound by the targeting peptide) (bacteria; [1]): A. naeslundii

1T-15 (DVILRVEAQ; Peptide with targeting and/or antimicrobial activity) [Peptide 1T-15]
Target(s) (microorganism bound by the targeting peptide) (bacteria; [4]): S. mutans

PF-308 (QQYLILDRM; Peptide with targeting and/or antimicrobial activity)
Target(s) (bacteria; [2]): C. difficile

PF-229 (DPILIQIGFTRFALRKAEAEKIEIQVEEGVPA; Peptide with targeting and/or antimicrobial activity)
Target(s) (bacteria; [2]): S. epidermidis; also recorded: M. luteus; also recorded: P. aeruginosa; also recorded: A. baumannii

CHA0 (D[dOrn]KTAA[dOrn]K; bridge (positions not given here); not fully specified (bridges))
Target(s) (bacteria; [3]): P. fluorescens

1T-217 (MLSNVLSRSVVSPNVDIPNSMVILSPLLISISNYH; Peptide with targeting and/or antimicrobial activity) [Peptide 1T-217]
Target(s) (bacteria; [3]): F. nucleatum; also recorded: S. sanguinis

PF-C050 (QGLARPVLRRIPL; Peptide with targeting and/or antimicrobial activity)
Target(s) (microorganism bound by the targeting peptide) (bacteria; [1]): A. naeslundii; also recorded: S. mutans

PF-792 (ALHASGIQAI; Peptide with targeting and/or antimicrobial activity)
Target(s) (microorganism bound by the targeting peptide) (bacteria; [1]): S. mutans

PF-328 (NGNEKAFSEVENLVK; Peptide with targeting and/or antimicrobial activity)
Target(s) (bacteria; [2]): S. mutans

1T-27 (ALFVSLEQFLVVVAKSVFALCHSGTLS; Peptide with targeting and/or antimicrobial activity) [Peptide 1T-27]
Target(s) (microorganism bound by the targeting peptide) (bacteria; [4]): S. mutans; also recorded: S. aureus; also recorded: S. epidermidis; also recorded: C. jeikeium; also recorded: C. xerosis; also recorded: C. striatum; also recorded: P. aeruginosa

PF-C063 (SHFRKGD; Peptide with targeting and/or antimicrobial activity)
Target(s) (microorganism bound by the targeting peptide) (bacteria; [1]): A. naeslundii; also recorded: F. nucleatum; also recorded: S. mutans

1T-177 (GTNVPTQILGYSREERFDYEPAPEQR; Peptide with targeting and/or antimicrobial activity) [Peptide 1T-177]
Target(s) (microorganism bound by the targeting peptide) (bacteria; [4]): P. gingivalis; also recorded: S. gordonii; also recorded: S. mitis; also recorded: S. mutans; also recorded: S. oralis; also recorded: S. salivarious; also recorded: S. sanguinis

PF-735 (YDPLFPNDKN; Peptide with targeting and/or antimicrobial activity)
Target(s) (microorganism bound by the targeting peptide) (bacteria; [1]): S. mutans; also recorded: E. coli

PF-217 (DWEFTHKTIPQKK; Peptide with targeting and/or antimicrobial activity)
Target(s) (bacteria; [2]): S. mutans

PF-674 (DGCDSEPALTYR; Peptide with targeting and/or antimicrobial activity)
Target(s) (microorganism bound by the targeting peptide) (bacteria; [1]): S. mutans; also recorded: E. coli

1T-16 (IDMR; Peptide with targeting and/or antimicrobial activity) [Peptide 1T-16]
Target(s) (microorganism bound by the targeting peptide) (bacteria; [4]): P. aeruginosa
